Patent publication US8946299B2, “Use of calixarenes associated with an antibiotic in the treatment of bacterial infections” (Universite de Lorraine, priority 2011, dated 2015)
Like-named read-outs stand apart in the source and are kept apart here.

Columns and labels:
[1] = test system: SaR4: Meticillin-Resistant Staphylococcus aureus; assay: Antibiogram by the disk diffusion technique; assay type: cell-based; details: Table F2; strain SaR4; diameters
Procedure: (§1) 5.6 SaR4: Meticillin-Resistant Staphylococcus aureus Having an Associated Resistance to the Aminoglycosides, Fluoroquinolones, Macrolides-Lincosamines-Synergistins and Ofloxacin The bacterial and antibiogram identification is carried out by the VITEK 2 system (bioMérieux) and by the disk diffusion technique
(§2) 5.7 PaR2: Pseudomonas aeruginosa Having an Associated Resistance to the β-Lactams, the Trimethoprim-Sulphamethoxazole Combination and Fosfomycin The bacterial and antibiogram identification is carried out by the VITEK 2 system (bioMérieux) and by the disk diffusion technique

[2] = test system: PaR5: Pseudomonas aeruginosa; assay: Antibiogram by the disk diffusion technique; assay type: cell-based; parameters: unit not given here; details: Table I1; strain PaR5
[3] = test system: MRSA strain having a resistance to the aminoglycosides and fluoroquinolones (SaR3); assay: Chessboard technique: MICs alone and synergism of Cx1 combinations; assay type: cell-based, Staphylococcus aureus
Source text: (§3) Three reference strains were used, corresponding to those studied for the MICs and MBCs (Minimum Bactericidal Concentration): Escherichia coli ATCC 25922, Staphylococcus aureus ATCC 29213, Pseudomonas aeruginosa ATCC 27853. For each of these strains 3 corresponding clinical isolates were chosen, having various antibiotic-resistance profiles, routinely used in standard fashion: • EcR1, EcR2, EcR3; • SaR1, SaR3, SaR4; • PaR2, PaR3, PaR5.
(§4) 1.3. Procedure: Chessboard Technique
(§5) The bacterial suspension is transferred to a 15 mL Falcon tube, centrifuged for 10 min at 4500 g, then the pellet is re-suspended in 1 mL of sterile distilled water. Suitable dilutions are then prepared in order to obtain a bacterial inoculum between 5·10^5 and 5·10^6 CFU/mL.
(§6) The MICs of the antibiotics were previously determined for each strain, by the method of microdilution in a liquid medium (CLSI (Clinical and Laboratory Standards Institute), 2003).
(§7) The same procedure is followed for the Cx1. […] Thus 64 ATB/Cx1 combinations are obtained.
(§8) The final volume contained in each of the wells must be 100 μL. Two controls must be present on each plate: • column 1 and 12: medium control • column 2 and 11: medium+bacteria control
(§9) Cx1: […] in the wells of […], starting with the lowest concentration.
(§10) ATB: 25 μL in the wells of rows H to A (columns 3 to 11), starting with the lowest concentration.
(§11) 50 μL in each of the wells of columns 2 to 11.
(§12) D2: Reading the Turbidity at 540 Nm.
(§13) The FIC (Fractional Inhibitory Concentration Index) value is determined by the following formula:
(§14) [formula] MICA in combination MICA alone MICB in combination MICB alone
(§15) When FIC≦0.5, there is a synergistic effect between antibiotic A and antibiotic B.
(§16) When 0.5<FIC≦1, there is an additive effect between antibiotic A and antibiotic B.
(§17) When 1<FIC≦4, there is an indifferent effect between antibiotic A and antibiotic B.
(§18) When FIC>4, there is an antagonistic effect between antibiotic A and antibiotic B.
(§19) For each strain and each antibiotic/Cx1 combination, the experiments were repeated a minimum of 3 times.

[4] = test system: MRSA strain without associated resistance (SaR1); assay: as above; assay type: cell-based, Staphylococcus aureus
Source text: as §3, §4, §5, §6, §7, §8, §9, §10, §11, §12, §13, §14, §15, §16, §17, §18, §19

[5] = as above; assay type: cell-based, Staphylococcus aureus; details: Staphylococcus aureus, MRSA, read-out: MIC (antibiotic)
Source text: as §3, §4, §5, §6, §7, §8, §9, §10, §11, §12, §13, §14, §15, §16, §17, §18, §19

[6] = test system: SaR4: Meticillin-Resistant Staphylococcus aureus; assay: Antibiogram, MIC by the VITEK 2 system; assay type: cell-based
Procedure: as §1, §2

[7] = test system: Staphylococcus aureus strain ATCC 29213 (wild type); assay: Chessboard technique: MICs alone and synergism of Cx1 combinations; assay type: cell-based
Source text: as §3, §4, §5, §6, §7, §8, §9, §10, §11, §12, §13, §14, §15, §16, §17, §18, §19

[8] = test system: EcR1: Penicillinase-Producing Escherichia coli without Associated Resistance; assay: Antibiogram by the disk diffusion technique; assay type: cell-based; details: for Results (diameter): Table A1, category from diameter vs Dmin Dmax; for Diameter: Table A1, disk diffusion
Procedure: (§20) 5. Identification and Antibiogram 5.1 EcR1: Penicillinase-Producing Escherichia coli without Associated Resistance
(§21) The bacterial and antibiogram identification is carried out by the VITEK 2 system (bioMérieux) and by the disk diffusion technique.

[9] = test system: EcR3: ESBL-Producing Escherichia coli; assay: Antibiogram by the disk diffusion technique; assay type: cell-based; details: Table C1; strain EcR3
Procedure: 5.3 EcR3: ESBL-Producing Escherichia coli with Associated Resistance to the Aminoglycosides, Rifampicin and the Trimethoprim-Sulphamethoxazole Combination
The bacterial and antibiogram identification is carried out by the VITEK 2 system (bioMérieux) and by the disk diffusion technique

[10] = test system: Pseudomonas aeruginosa strain having a resistance to β-lactams (including the carbapenems), aminoglycosides, the trimethoprim-sulphamethoxazole combination and …; assay: Chessboard technique: MICs alone and synergism of Cx1 combinations; assay type: cell-based; details: antibiotic used alone; second figure of the cell; n = 4
Source text: as §3, §4, §5, §6, §7, §8, §9, §10, §11, §12, §13, §14, §15, §16, §17, §18, §19

[11] = test system: Pseudomonas aeruginosa strain ATCC 27853 (wild type); assay: as above; assay type: cell-based; details: antibiotic used alone; second figure of the cell; n = 4
Source text: as §3, §4, §5, §6, §7, §8, §9, §10, §11, §12, §13, §14, §15, §16, §17, §18, §19

[12] = test system: mucoid strain of Pseudomonas aeruginosa having a resistance to rifampicin and the trimethoprim-sulphamethoxazole combination (PaR5); assay: as above; assay type: cell-based; details: antibiotic used alone; second figure of the cell; n = 4
Source text: as §3, §4, §5, §6, §7, §8, §9, §10, §11, §12, §13, §14, §15, §16, §17, §18, §19

[13] = test system: PaR2: Pseudomonas aeruginosa; assay type: cell-based; details: Table G1; strain PaR2
Procedure: as §2

[14] = test system: Pseudomonas aeruginosa strain having a resistance to β-lactams, the trimethoprim-sulphamethoxazole combination and fosfomycin (PaR2); assay type: cell-based; details: antibiotic used alone; second figure of the cell; n = 4
Source text: as §3, §4, §5, §6, §7, §8, §9, §10, §11, §12, §13, §14, §15, §16, §17, §18, §19

[15] = test system: MRSA strain having a resistance to the aminoglycosides, fluoroquinolones, macrolides-lincosamides-synergistins and ofloxacin (SaR4); assay: Chessboard technique: MICs alone and synergism of Cx1 combinations; assay type: cell-based, Staphylococcus aureus; details: antibiotic used alone; second figure of the cell; n = 4
Source text: as §3, §4, §5, §6, §7, §8, §9, §10, §11, §12, §13, §14, §15, §16, §17, §18, §19

[16] = test system: cephalosporinase-hyperproducing strain of Escherichia coli (EcR2); assay: as above; assay type: cell-based; details: antibiotic used alone; second figure of the cell; n = 4
Source text: as §3, §4, §5, §6, §7, §8, §9, §10, §11, §12, §13, §14, §15, §16, §17, §18, §19

[17] = test system: Escherichia coli strain ATCC 25922 (wild type); assay: as above; assay type: cell-based; details: antibiotic used alone; second figure of the cell; n = 4
Source text: as §3, §4, §5, §6, §7, §8, §9, §10, §11, §12, §13, §14, §15, §16, §17, §18, §19

[18] = test system: penicillinase-producing strain of Escherichia coli without associated resistance (EcR1); assay: as above; assay type: cell-based; details: antibiotic used alone; second figure of the cell; n = 4
Source text: as §3, §4, §5, §6, §7, §8, §9, §10, §11, §12, §13, §14, §15, §16, §17, §18, §19

[19] = test system: ESBL-producing strain of Escherichia coli (EcR3); assay: as above; assay type: cell-based; details: antibiotic used alone; second figure of the cell; n = 4
Source text: as §3, §4, §5, §6, §7, §8, §9, §10, §11, §12, §13, §14, §15, §16, §17, §18, §19

[20] = test system: Escherichia coli, Staphylococcus aureus and Pseudomonas aeruginosa strains; assay: Chessboard technique, summary over all strains and combinations tested; assay type: cell-based
Source text: as §3, §4
The FIC (Fractional Inhibitory Concentration Index) value is determined by the following formula: […]
as §19

[21] = test system: EcR1: Penicillinase-Producing Escherichia coli without Associated Resistance; assay: Antibiogram, MIC by the VITEK 2 system; assay type: cell-based; details: Table A1, category from MIC
Procedure: as §20, §21

[22] = test system: SaR3: Meticillin-Resistant Staphylococcus aureus; assay: Antibiogram by the disk diffusion technique; assay type: cell-based; details: Table E1; strain SaR3
[23] = test system: SaR1: Meticillin-Resistant Staphylococcus aureus without Associated Resistance; assay: Antibiogram by the VITEK 2 system; assay type: cell-based; details: Table D1; strain SaR1
Procedure: 5.4 SaR1: Meticillin-Resistant Staphylococcus aureus without Associated Resistance
The bacterial and antibiogram identification is carried out by the VITEK 2 system (bioMérieux)
February 2006: Detection of the gene mecA by the PCR technique: POSITIVE Expert finding July 2006: totally typical phenotype: modification of the PLPs The fluctuations relative to the type of associated resistance for certain strains between Tables D1 and D2 are due to the development of the French (CA-SFM), European (EUCAST) and American (CLSI) recommendations for the categorization of bacterial strains. 5.5 SaR3: Meticillin-Resistant Staphylococcus aureus Having an Associated Resistance to the Aminoglycosides and Fluoroquinolones The bacterial and antibiogram identification is carried out by the VITEK 2 system (bioMérieux) and by the disk diffusion technique

[24] = Staphylococcus aureus, MRSA, read-out: MIC (antibiotic)
[25] = antibiotic used alone, second figure of the cell, n = 4

NC[C@H]1O[C@H](O[C@H]2[C@H](O)[C@@H](O[C@H]3O[C@H](CO)[C@@H](O)[C@H](N)[C@H]3O)[C@H](N)C[C@@H]2N)[C@H](O)[C@@H](O)[C@@H]1O [Kanamycin]
diameter in mm [1]: 7 mm

CCn1cc(C(=O)O)c(=O)c2cc(F)c(N3CCNCC3)cc21 [Norofloxacin]
Diameter [2]: 17

CN[C@H](CC(C)C)C(=O)N[C@H]1C(=O)N[C@@H](CC(N)=O)C(=O)N[C@H]2C(=O)N[C@H]3C(=O)N[C@H](C(=O)N[C@H](C(=O)O)c4cc(O)cc(O)c4-c4cc3ccc4O)[C@H](O)c3ccc(c(Cl)c3)Oc3cc2cc(c3O[C@@H]2O[C@H](CO)[C@@H](O)[C@H](O)[C@H]2O[C@H]2C[C@](C)(N)[C@H](O)[C@H](C)O2)Oc2ccc(cc2Cl)[C@H]1O [Vancomycin]
MIC [3, 24]: 0.25 µg/mL
MIC [4, 24]: 0.25 µg/mL
MIC [5]: 0.25 µg/mL
MIC ([6]; Staphylococcus aureus, read-out: MIC mg/L): 1 mg/L
MIC ([6]; Table F2, strain SaR4, cells of the mixed column that are MICs): 1 mg/L
MIC ([7]; Staphylococcus aureus, ATCC29213, read-out: Initials MIC (antibiotic)): 0.5 µg/mL

Colimycin
Results (diameter) [8]: Susceptible
Diameter [8]: 15
diameter in mm ([8]; Table A2, diameter): 15 mm
Diameter [9]: 16
MIC (antibiotic) [10]: 8 mg/L
MIC (antibiotic) [11]: 4 mg/L
MIC (antibiotic) [12]: 16 mg/L
Diameter [13]: 20
MIC (antibiotic) [14]: 8 mg/L
Diameter [2]: 23

Gentamicin
Results (diameter) [8]: Susceptible
Diameter [8]: 20
MIC (antibiotic) [3, 25]: 0.125 mg/L
MIC (antibiotic) [4, 25]: 0.25 mg/L
MIC (antibiotic) [15]: 0.25 mg/L
Initial MICs (antibiotic) [16]: 2/2 mg/L
Initial MICs (antibiotic) [17]: 0.125 mg/L
Initial MICs (antibiotic) [18]: 0.125 mg/L
Initial MICs (antibiotic) [19]: 2/2 mg/L
Initials MIC (antibiotic) [7, 25]: 0.25 mg/L
nature of the interaction between Cx1 and the antibiotic [20]: synergism
Results (MIC) [21]: Susceptible
Diameter [22]: 20
Diameter [23]: 23
Diameter [2]: 25
